{"source": "ChEMBL document CHEMBL1201862", "about": "“PubChem BioAssay data set” (2004)", "key": {"[1]": {"assay": "Counterscreen for AddAB inhibitors: absorbance-based bacterial cell-based high throughput dose response assay for inhibitors of bacterial viability. [Related pubchem assays (depositor defined):AID435030, AID449728, AID449731, AID488942, AID488955, AID488956]", "format": "functional"}, "[2]": {"assay": "NIH-3T3 fibroblast cytotoxicity, dose response, cytotoxicity control, cell-based, fluorescence, Alamar Blue, secondary assay (AID 2327);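 also: NIH-3T3 mouse fibroblasts cultured with fluconazole at 8 µg/mL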", "format": "functional"}, "Streptokinase A": {"target": "T1, Streptokinase A (Streptococcus pyogenes serotype M1, UniProt P10520)", "T1 sequence (P10520 whole entry)": "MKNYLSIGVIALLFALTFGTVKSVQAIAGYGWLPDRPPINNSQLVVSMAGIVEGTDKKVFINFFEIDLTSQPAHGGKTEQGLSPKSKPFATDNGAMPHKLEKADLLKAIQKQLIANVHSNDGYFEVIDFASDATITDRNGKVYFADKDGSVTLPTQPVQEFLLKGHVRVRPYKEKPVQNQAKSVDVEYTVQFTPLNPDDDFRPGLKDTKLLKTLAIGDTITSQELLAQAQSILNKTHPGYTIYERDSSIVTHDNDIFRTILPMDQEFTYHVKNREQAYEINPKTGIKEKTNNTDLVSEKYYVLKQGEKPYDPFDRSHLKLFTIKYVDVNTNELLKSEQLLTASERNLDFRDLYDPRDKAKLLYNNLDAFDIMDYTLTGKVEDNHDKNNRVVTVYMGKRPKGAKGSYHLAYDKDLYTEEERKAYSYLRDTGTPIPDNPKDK", "assay": "viability-normalized secreted streptokinase activity reduction – plasminogen activation absorbance, OD405, dose response (AID 1914);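 also: secreted streptokinase activity via plasminogen activation per viability signal from cell pellet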", "format": "functional, Streptococcus pyogenes M1 GAS"}, "Streptococcus": {"test_system": "Streptococcus", "assay": "GAS UMAA2166 growth inhibition – luminescence, BacTiterGlo, counter-screen for streptokinase expression inhibitor project, dose response (AID 1915)", "format": "functional, organism-based"}, "[3]": {"assay": "fluconazole-exposed Candida albicans growth modulators – fluorescence, retest, confirmation (AID 2467)", "format": "functional, cell-based"}, "Protein RecA": {"target": "T2, Protein RecA (Mycobacterium tuberculosis, UniProt P9WHJ3)", "T2 sequence (P9WHJ3 whole entry)": "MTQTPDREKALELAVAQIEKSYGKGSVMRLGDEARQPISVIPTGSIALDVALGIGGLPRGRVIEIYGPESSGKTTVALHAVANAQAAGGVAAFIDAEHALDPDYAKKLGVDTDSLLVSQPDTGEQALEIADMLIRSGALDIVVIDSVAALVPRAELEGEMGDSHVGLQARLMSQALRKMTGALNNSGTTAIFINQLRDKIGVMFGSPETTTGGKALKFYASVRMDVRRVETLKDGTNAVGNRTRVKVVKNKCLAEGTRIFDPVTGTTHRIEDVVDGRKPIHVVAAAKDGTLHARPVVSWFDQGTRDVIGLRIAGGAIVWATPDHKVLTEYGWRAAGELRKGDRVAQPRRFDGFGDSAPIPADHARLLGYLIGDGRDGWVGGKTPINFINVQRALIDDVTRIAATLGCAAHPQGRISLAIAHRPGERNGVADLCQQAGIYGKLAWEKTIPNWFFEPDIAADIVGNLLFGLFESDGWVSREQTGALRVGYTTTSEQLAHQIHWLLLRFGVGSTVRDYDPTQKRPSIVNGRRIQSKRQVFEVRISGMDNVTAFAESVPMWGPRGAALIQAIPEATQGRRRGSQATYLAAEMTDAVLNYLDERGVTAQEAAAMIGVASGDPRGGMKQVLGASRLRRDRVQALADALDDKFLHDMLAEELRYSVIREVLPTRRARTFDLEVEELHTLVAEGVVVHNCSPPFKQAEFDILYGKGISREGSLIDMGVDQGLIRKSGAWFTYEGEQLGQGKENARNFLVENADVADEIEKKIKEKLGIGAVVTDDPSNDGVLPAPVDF", "assay": "Fluorescence Cell-Free Homogeneous Dose Retest to Identify Inhibitors of RecA-Intein Splicing Activity. [Related pubchem assays (depositor defined):AID2097, AID2223, AID489010, AID492950]", "format": "functional"}}, "note": "Activity calls are given as the source filed them. Rule as the data show it, for most assays here: actives have a measured EC50 and inactives only a lower limit.", "data": [{"smiles": "O=C(Nc1cccc(NC(=O)c2ccccc2Cl)c1)c1ccc([N+](=O)[O-])o1", "values": [{"measurement": "IC50", "setting": "[1]", "result": "> 119 µM (inactive)"}, {"measurement": "EC50", "setting": "[2]", "result": "12.1 µM (inconclusive)"}, {"measurement": "EC50", "setting": "Streptokinase A", "result": "> 150 µM (not active)"}, {"measurement": "EC50", "setting": "Streptococcus", "result": "20.4 µM (inconclusive)"}, {"measurement": "EC50", "setting": "[3]", "result": "2.84 µM (active)"}]}, {"smiles": "COc1ccc(CC2=CC(=O)c3ccccc3C2=O)cc1", "values": [{"measurement": "EC50", "setting": "Streptokinase A", "result": "> 150 µM (not active)"}, {"measurement": "EC50", "setting": "Streptococcus", "result": "9.74 µM (active)"}, {"measurement": "EC50", "setting": "Protein RecA", "result": "3.37 µM (active)"}]}, {"smiles": "c1coc(-c2nnc(-c3ccco3)nn2)c1", "values": [{"measurement": "EC50", "setting": "Protein RecA", "result": "7.01 µM (active)"}]}, {"smiles": "Cn1c(O)c(/C=N/NC(=O)c2cc3ccccc3cc2O)c2ccccc21", "values": [{"measurement": "IC50", "setting": "[1]", "result": "> 119 µM (inactive)"}, {"measurement": "EC50", "setting": "[2]", "result": "> 160 µM (inconclusive)"}, {"measurement": "EC50", "setting": "[3]", "result": "2.97 µM (active)"}]}]}
